Laboratory results from patent US20090264338A1, “Inhibitor of Insulin Multimer Formation” (priority 2005, published 2009).

What was measured:
[1] = tested on: Fc-fusion human insulin receptor; assay: BIACORE 2000 analysis of the interaction between insulin and insulin receptor in the presence of the peptides; format: binding; details: 5 μM insulin forming a hexamer in the presence of 100 μM ZnCl2, 500 μM peptide added
Experimental: A DNA sequence encoding the Fc-fusion human insulin receptor (Bass, J. J. Biol. Chem. 271, 19367 (1996)) was constructed and inserted into the vector pEF-BOS (Nucleic Acids Res. 1990 Sep. 11; 18(17): 5322). Mammalian cells, FreeStyle 293-F, were cultured at 37° C., and the concentration of the cells was adjusted to 1×10^6 cells/mL. The insulin receptor-expressing plasmid was mixed with Cellfectin (Invitrogen Corporation), and added to the cells, followed by culture for an additional two days. The obtained culture supernatant was purified by protein A affinity chromatography, to yield an Fc-fusion human insulin receptor.
Commercially available insulin (manufactured by Sigma-Aldrich Corp.) and the Fc-fusion human insulin receptor obtained by the method above (item (1)) were used to analyze the interaction between insulin and the insulin receptor (BIACORE 2000, manufactured by Biacore Medical Technologies, Inc.). First, PBS with or without 100 μM ZnCl2 was used to prepare 5 μM insulin solutions.
Subsequently, 500 μM INHD1 and INHD2 peptides were added to insulin that forms a hexamer in the presence of ZnCl2, and the interaction between insulin and the insulin receptor was observed.

insulin hexamer = biological target: T1, insulin hexamer (Homo sapiens, UniProt P01308); assay: Gel filtration chromatography of insulin hexamer formation in the presence of INHD peptide; format: biochemical; details: 5 μM insulin
T1 construct: purchased Sigma-Aldrich Corp
T1 sequence (P01308 25-54 limits assumed): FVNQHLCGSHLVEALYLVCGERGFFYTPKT
T1 sequence (P01308 90-110 limits assumed): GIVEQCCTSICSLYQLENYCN
Experimental: In order to separately detect insulin hexamers and insulin monomers, gel filtration chromatography was performed. PBS supplemented with 100 μM ZnCl2 was used as a solvent to form hexamers at a concentration of this experiment (5 μM). This is because zinc ion stabilizes insulin hexamers. For the 5 μM insulin solution, the hexamer was the main peak, and the ratio of the monomer was extremely low.
The insulin solution was subjected to gel filtration chromatography in the presence of the INHD peptide to show inhibition of insulin hexamer formation by the INHD peptide.

Substance | receptor binding of insulin (interaction between insulin and the insulin receptor) [1] | peak which represents the insulin hexamer (gel filtration) (insulin hexamer; 500 μM peptide, PBS with 100 μM ZnCl2) | inhibition of hexamer formation (gel filtration) (insulin hexamer; PBS with 100 μM ZnCl2, compared with INHD1 peptide)
INHD1: Designed peptide from insulin B-chain positions 5 to 29, with Glu/Lys introduced, Glu13 to Gln, Leu17 to Ala, Cys19 to Ser (HEEGSKKVQELYAKSGERGFFYTPK) | significantly increased to a level approximately equal to that with an insulin monomer | significantly decreased | 
INHD2: Smaller designed peptide corresponding to the insulin B-chain α-helix at positions 5 to 20 (HEEGSKKVQELYAKSG) | significantly increased to a level approximately equal to that with an insulin monomer |  | slightly lower than that for the INHD1 peptide
